According to ChEMBL document CHEMBL1156642, “Discovery of betamethasone 17alpha-carbamates as dissociated glucocorticoid receptor modulators in the rat” (Bioorg Med Chem, 2008):
Calls of active or inactive are those of the source. The calls are words filed in the database; no cut-off is given here.

Experiments:
[1] = Oral bioavailability in rat; type: ADME, organism-based; conditions: in vivo
Rattus norvegicus [2] = assay: Effect on adrenal weight in Lewis rat with implanted cotton pellets at 5.0 mg/kg, po bid; type: functional
Rattus norvegicus [3] = assay: Effect on thymus weight in Lewis rat with implanted cotton pellets at 19 mg/kg, po bid; type: functional
Rattus norvegicus [4] = assay: Effect on body weight change in Lewis rat with implanted cotton pellets at 10 mg/kg, po bid for 7 days; type: functional
Rattus norvegicus [5] = organism: Rattus norvegicus; assay: Transactivation activity of glutamine synthase in rat skeletal muscle cells relative to Dexamethasone; type: cell-based
Glucocorticoid receptor = target: T1, Glucocorticoid receptor (Homo sapiens, UniProt P04150)
T1 sequence (P04150 whole entry): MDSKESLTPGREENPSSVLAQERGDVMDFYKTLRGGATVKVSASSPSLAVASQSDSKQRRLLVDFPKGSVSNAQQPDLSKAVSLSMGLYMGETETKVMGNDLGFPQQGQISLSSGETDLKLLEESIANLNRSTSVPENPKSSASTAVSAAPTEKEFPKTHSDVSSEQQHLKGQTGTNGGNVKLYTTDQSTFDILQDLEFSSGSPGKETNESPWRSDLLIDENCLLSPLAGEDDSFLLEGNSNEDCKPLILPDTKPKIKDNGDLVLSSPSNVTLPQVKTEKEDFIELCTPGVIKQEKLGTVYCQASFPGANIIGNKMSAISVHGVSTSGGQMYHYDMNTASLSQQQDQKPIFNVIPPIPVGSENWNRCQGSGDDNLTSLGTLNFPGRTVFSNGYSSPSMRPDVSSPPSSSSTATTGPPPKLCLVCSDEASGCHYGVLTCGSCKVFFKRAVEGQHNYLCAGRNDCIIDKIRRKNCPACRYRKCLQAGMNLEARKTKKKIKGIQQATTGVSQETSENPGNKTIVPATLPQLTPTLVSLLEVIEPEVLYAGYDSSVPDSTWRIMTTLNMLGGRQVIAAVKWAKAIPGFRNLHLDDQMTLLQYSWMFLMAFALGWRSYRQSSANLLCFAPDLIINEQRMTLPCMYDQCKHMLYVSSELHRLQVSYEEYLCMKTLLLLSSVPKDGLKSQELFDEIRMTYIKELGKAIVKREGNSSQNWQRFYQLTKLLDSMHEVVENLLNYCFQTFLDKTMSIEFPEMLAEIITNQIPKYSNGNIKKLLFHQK
Description: Inhibition of human glucocorticoid receptor

Rattus norvegicus [6] = assay: Effect on plasma triglyceride level in Zucker fatty rat at 30 mg/kg, after 5 days
Rattus norvegicus [7] = assay: Effect on plasma glucose level in nonfasted Zucker fatty rat at 30 mg/kg, after 5 days
Rattus norvegicus [8] = assay: Effect on body weight change in Lewis rat with implanted cotton pellets at 10 mg/kg, po bid for 4 days; type: functional
Rattus norvegicus [9] = assay: Effect on body weight change in Lewis rat with implanted cotton pellets at 5.0 mg/kg, po bid for 7 days; type: functional
Rattus norvegicus [10] = assay: Effect on body weight change in Lewis rat with implanted cotton pellets at 19 mg/kg, po bid for 7 days; type: functional
Rattus norvegicus [11] = assay: Effect on thymus weight in Lewis rat with implanted cotton pellets at 5.0 mg/kg, po bid; type: functional
Rattus norvegicus [12] = assay: Inhibition of granuloma formation in cotton pellet implanted Lewis rat at 19 mg/kg, po bid; type: functional
Rattus norvegicus [13] = assay: Inhibition of granuloma formation in cotton pellet implanted Lewis rat at 10 mg/kg, po bid; type: functional
Rattus norvegicus [14] = assay: Effect on spleen weight in Lewis rat with implanted cotton pellets at 10 mg/kg, po bid; type: functional
Rattus norvegicus [15] = assay: Effect on thymus weight in Lewis rat with implanted cotton pellets at 10 mg/kg, po bid; type: functional
[16] = Plasma clearance in rat; type: ADME, organism-based
Rattus norvegicus [17] = assay: Effect on adrenal weight in Lewis rat with implanted cotton pellets at 19 mg/kg, po bid; type: functional
[18] = Half life in rat; type: ADME, organism-based; conditions: in vivo
Rattus norvegicus [19] = assay: Effect on body weight change in Zucker fatty rat at 30 mg/kg, after 5 days
Rattus norvegicus [20] = assay: Effect on adrenal weight in Lewis rat with implanted cotton pellets at 10 mg/kg, po bid; type: functional
Rattus norvegicus [21] = assay: Effect on plasma insulin level in Zucker fatty rat at 30 mg/kg, after 5 days
Progesterone receptor = target: T2, Progesterone receptor (Homo sapiens, UniProt P06401); assay: Inhibition of human progesterone receptor
T2 sequence (P06401 whole entry): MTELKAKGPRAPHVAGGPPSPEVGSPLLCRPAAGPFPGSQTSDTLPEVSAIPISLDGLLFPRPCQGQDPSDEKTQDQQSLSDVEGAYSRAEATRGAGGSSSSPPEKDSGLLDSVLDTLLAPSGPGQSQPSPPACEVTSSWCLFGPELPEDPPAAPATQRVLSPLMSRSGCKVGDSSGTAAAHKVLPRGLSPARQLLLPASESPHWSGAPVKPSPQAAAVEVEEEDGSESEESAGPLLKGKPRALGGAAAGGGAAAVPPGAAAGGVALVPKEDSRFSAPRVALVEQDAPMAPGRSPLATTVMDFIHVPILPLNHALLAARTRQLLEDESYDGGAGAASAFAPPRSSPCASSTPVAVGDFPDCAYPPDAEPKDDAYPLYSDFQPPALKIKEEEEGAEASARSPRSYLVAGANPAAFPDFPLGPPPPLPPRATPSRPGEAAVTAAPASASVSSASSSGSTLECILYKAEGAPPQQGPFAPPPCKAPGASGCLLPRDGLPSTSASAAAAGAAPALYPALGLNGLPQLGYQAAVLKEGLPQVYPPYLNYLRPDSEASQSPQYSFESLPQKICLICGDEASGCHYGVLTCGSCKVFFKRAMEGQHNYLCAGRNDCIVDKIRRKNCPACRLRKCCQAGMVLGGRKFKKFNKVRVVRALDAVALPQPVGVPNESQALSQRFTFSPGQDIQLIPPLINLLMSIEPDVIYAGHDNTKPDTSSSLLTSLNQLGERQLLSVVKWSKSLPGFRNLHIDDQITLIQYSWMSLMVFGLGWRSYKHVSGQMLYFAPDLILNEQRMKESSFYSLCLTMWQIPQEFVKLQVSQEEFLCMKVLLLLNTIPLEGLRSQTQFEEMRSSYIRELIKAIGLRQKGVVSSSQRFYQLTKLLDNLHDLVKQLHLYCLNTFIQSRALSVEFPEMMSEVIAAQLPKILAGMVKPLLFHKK

Rattus norvegicus [22] = assay: Effect on spleen weight in Lewis rat with implanted cotton pellets at 5.0 mg/kg, po bid; type: functional
[23] = Volume of distribution at steady state in rat; type: ADME, organism-based; conditions: in vivo, read-out: Vdss
Rattus norvegicus [24] = assay: Inhibition of granuloma formation in cotton pellet implanted Lewis rat at 5.0 mg/kg, po bid; type: functional
[25] = target: T3, Interstitial collagenase (Homo sapiens) (UniProt P03956); assay: Inhibition of glucocorticoid-mediated human MMP1 expression in PMA stimulated A549 cells assessed as MMP1 protein level by ELISA relative to Dexamethasone; type: cell-based; design: scale not given: the % may be the effect or the level left
T3 sequence (whole entry): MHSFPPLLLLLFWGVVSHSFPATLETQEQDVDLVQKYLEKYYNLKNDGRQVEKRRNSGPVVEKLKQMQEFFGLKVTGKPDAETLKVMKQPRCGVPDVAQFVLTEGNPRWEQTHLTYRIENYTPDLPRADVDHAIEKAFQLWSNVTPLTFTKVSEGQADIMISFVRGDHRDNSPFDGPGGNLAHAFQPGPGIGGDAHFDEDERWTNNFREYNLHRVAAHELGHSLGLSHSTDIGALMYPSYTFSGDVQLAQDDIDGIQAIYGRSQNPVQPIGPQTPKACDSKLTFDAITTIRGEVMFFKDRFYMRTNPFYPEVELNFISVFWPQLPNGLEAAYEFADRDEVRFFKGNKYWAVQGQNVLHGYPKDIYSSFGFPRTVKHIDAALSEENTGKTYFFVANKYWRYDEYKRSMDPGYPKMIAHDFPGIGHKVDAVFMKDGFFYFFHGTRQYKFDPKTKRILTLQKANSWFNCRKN

Rattus norvegicus [26] = assay: Effect on body weight change in Lewis rat with implanted cotton pellets at 5.0 mg/kg, po bid for 4 days; type: functional
Rattus norvegicus [27] = assay: Effect on spleen weight in Lewis rat with implanted cotton pellets at 19 mg/kg, po bid; type: functional
Rattus norvegicus [28] = assay: Effect on body weight change in Lewis rat with implanted cotton pellets at 19 mg/kg, po bid for 4 days; type: functional
Mus musculus = organism: Mus musculus; assay: Inhibition of LPS-induced TNFalpha production in mouse; type: functional
Rattus norvegicus [29] = assay: Effect on body weight change in Lewis rat with implanted cotton pellets at 1.0 mg/kg, po bid for 7 days; type: functional
Rattus norvegicus [30] = assay: Effect on body weight change in Lewis rat with implanted cotton pellets at 2.5 mg/kg, po bid for 7 days; type: functional
Rattus norvegicus [31] = assay: Effect on adrenal weight in Lewis rat with implanted cotton pellets at 1.0 mg/kg, po bid; type: functional
Rattus norvegicus [32] = assay: Effect on spleen weight in Lewis rat with implanted cotton pellets at 6.0 mg/kg, po bid; type: functional
Rattus norvegicus [33] = assay: Inhibition of granuloma formation in cotton pellet implanted Lewis rat at 1.0 mg/kg, po bid; type: functional
Rattus norvegicus [34] = assay: Effect on spleen weight in Lewis rat with implanted cotton pellets at 2.5 mg/kg, po bid; type: functional
Rattus norvegicus [35] = assay: Effect on body weight change in Lewis rat with implanted cotton pellets at 1.0 mg/kg, po bid for 4 days; type: functional
Rattus norvegicus [36] = assay: Effect on spleen weight in Lewis rat with implanted cotton pellets at 1.0 mg/kg, po bid; type: functional
Rattus norvegicus [37] = assay: Effect on body weight change in Lewis rat with implanted cotton pellets at 6.0 mg/kg, po bid for 7 days; type: functional
Rattus norvegicus [38] = assay: Effect on thymus weight in Lewis rat with implanted cotton pellets at 2.5 mg/kg, po bid; type: functional
Rattus norvegicus [39] = assay: Effect on adrenal weight in Lewis rat with implanted cotton pellets at 2.5 mg/kg, po bid; type: functional
Rattus norvegicus [40] = assay: Inhibition of granuloma formation in cotton pellet implanted Lewis rat at 6.0 mg/kg, po bid; type: functional
Rattus norvegicus [41] = assay: Effect on thymus weight in Lewis rat with implanted cotton pellets at 1.0 mg/kg, po bid; type: functional
Rattus norvegicus [42] = assay: Effect on body weight change in Lewis rat with implanted cotton pellets at 2.5 mg/kg, po bid for 4 days; type: functional
Rattus norvegicus [43] = assay: Inhibition of granuloma formation in cotton pellet implanted Lewis rat at 2.5 mg/kg, po bid; type: functional
Rattus norvegicus [44] = assay: Effect on thymus weight in Lewis rat with implanted cotton pellets at 6.0 mg/kg, po bid; type: functional
Rattus norvegicus [45] = assay: Effect on body weight change in Lewis rat with implanted cotton pellets at 6.0 mg/kg, po bid for 4 days; type: functional
Rattus norvegicus [46] = assay: Effect on adrenal weight in Lewis rat with implanted cotton pellets at 6.0 mg/kg, po bid; type: functional

SMILES: CCNC(=O)O[C@]1(C(=O)CO)[C@@H](C)C[C@H]2[C@@H]3CCC4=CC(=O)C=C[C@]4(C)[C@@]3(F)[C@@H](O)C[C@@]21C
- bioavailability [1]: 43%
- Activity (Rattus norvegicus [2]): 39 mg
- Activity (Rattus norvegicus [3]): 119.9 mg
- Activity (Rattus norvegicus [4]): 10 g
- Activity (Rattus norvegicus [5]): 23.4%
- IC50 (Glucocorticoid receptor): 5.1 nM
- Activity (Rattus norvegicus [6]): Active
- Activity (Rattus norvegicus [7]): Active
- Activity (Rattus norvegicus [8]): 7.3 g
- Activity (Rattus norvegicus [9]): 11 g
- Activity (Rattus norvegicus [10]): 7.5 g
- Activity (Rattus norvegicus [11]): 170.7 mg
- inhibition in vivo at 19 mg/kg (Rattus norvegicus [12]): 44.6%
- inhibition in vivo at 10 mg/kg (Rattus norvegicus [13]): 33.5%
- Activity (Rattus norvegicus [14]): 311.2 mg
- Activity (Rattus norvegicus [15]): 144.9 mg
- clearance [16]: 26 mL/min/kg
- Activity (Rattus norvegicus [17]): 30.8 mg
- half-life [18]: 2.2 h
- Activity (Rattus norvegicus [19]): Active
- Activity (Rattus norvegicus [20]): 36.8 mg
- Activity (Rattus norvegicus [21]): Active
- IC50 (Progesterone receptor): > 1000 nM
- Activity (Rattus norvegicus [22]): 330.9 mg
- Vd [23]: 3.22 L/kg
- inhibition in vivo at 5 mg/kg (Rattus norvegicus [24]): 35.6%
- Activity [25]: 104%
- Activity (Rattus norvegicus [26]): 5.9 g
- Activity (Rattus norvegicus [27]): 305.3 mg
- Activity (Rattus norvegicus [28]): 5.6 g
- ED50 (Mus musculus): 0.1 mg/kg

SMILES: C[C@]12C=CC(=O)C=C1CC[C@@H]1[C@@H]2[C@@H](O)C[C@@]2(C)[C@H]1CC[C@]2(O)C(=O)CO [PREDNISOLONE]
- Activity (Rattus norvegicus [29]): 3 g
- Activity (Rattus norvegicus [30]): -0.4 g
- Activity (Rattus norvegicus [31]): 38.7 mg
- Activity (Rattus norvegicus [32]): 260 mg
- inhibition in vivo at 1 mg/kg (Rattus norvegicus [33]): 37.6%
- Activity (Rattus norvegicus [34]): 266.8 mg
- Activity (Rattus norvegicus [35]): 1.5 g
- Activity (Rattus norvegicus [36]): 334.7 mg
- Activity (Rattus norvegicus [37]): -4.1 g
- Activity (Rattus norvegicus [38]): 117.8 mg
- Activity (Rattus norvegicus [39]): 26.9 mg
- inhibition in vivo at 6 mg/kg (Rattus norvegicus [40]): 56.2%
- Activity (Rattus norvegicus [41]): 219.5 mg
- Activity (Rattus norvegicus [42]): -1 g
- inhibition in vivo at 2.5 mg/kg (Rattus norvegicus [43]): 49.3%
- Activity (Rattus norvegicus [44]): 104 mg
- Activity (Rattus norvegicus [45]): -3.6 g
- Activity (Rattus norvegicus [46]): 27.9 mg
- ED50 (Mus musculus): 0.5 mg/kg
